Results: patent US20120142685A1, “ORGANIC COMPOUNDS” (priority 2007, published 2012)

target: T1, protein kinase D2 (PKD2) (Homo sapiens, UniProt Q9BZL6); assay: PKD2 TR-FRET (LANCE) kinase assay; assay type: biochemical; conditions: not given
T1 construct: This assay is performed with full length wild-type enzyme purchase from Invitrogen; purchased Invitrogen
T1 sequence (Q9BZL6 1-878): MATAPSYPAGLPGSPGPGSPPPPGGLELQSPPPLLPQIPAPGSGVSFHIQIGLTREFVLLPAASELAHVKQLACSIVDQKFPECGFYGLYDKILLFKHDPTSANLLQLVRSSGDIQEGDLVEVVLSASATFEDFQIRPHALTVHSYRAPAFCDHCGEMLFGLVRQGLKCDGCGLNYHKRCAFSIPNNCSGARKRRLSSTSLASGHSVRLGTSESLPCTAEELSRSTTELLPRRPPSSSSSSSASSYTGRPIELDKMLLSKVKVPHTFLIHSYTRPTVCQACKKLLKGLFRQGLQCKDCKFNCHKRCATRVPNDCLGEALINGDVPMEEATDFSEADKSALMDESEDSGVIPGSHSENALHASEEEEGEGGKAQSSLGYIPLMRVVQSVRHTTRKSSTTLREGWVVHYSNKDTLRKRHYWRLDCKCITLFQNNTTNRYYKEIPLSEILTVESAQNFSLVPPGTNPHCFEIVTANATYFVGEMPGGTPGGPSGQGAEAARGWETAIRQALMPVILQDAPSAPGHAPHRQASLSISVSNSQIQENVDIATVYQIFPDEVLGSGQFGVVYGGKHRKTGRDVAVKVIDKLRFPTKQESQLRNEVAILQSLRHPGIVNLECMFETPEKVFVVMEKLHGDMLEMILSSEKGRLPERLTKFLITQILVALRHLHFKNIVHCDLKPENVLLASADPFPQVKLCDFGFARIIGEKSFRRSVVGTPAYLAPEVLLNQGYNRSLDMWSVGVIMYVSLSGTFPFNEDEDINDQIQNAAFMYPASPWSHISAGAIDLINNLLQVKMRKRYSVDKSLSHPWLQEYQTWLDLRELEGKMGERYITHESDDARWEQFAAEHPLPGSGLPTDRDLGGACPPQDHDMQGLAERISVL
Description: The assay to measure protein kinase D2 (PKD2) activity is a time-resolved fluorescence resonance transfer (TR-FRET) assay using PerkinElmer's LANCE™ technology. In this case, a biotinylated syntide-2 peptide is used as the substrate in this reaction. Phosphorylation of the syntide-2 substrate is detected by a specific antibody that recognizes the phosphorylated peptide. A second fluorophore, APC, is conjugated to streptavidin that binds the biotinylated syntide-2 peptide. […] Therefore, when the europium labeled secondary antibody binds on the phosphorylated peptide, it is brought into close contact with the APC and excites this fluorophore.
This assay is performed with full length wild-type enzyme purchase from Invitrogen. The reaction buffer consists of 35 mM Tris-HCl pH7.5, 5 mM MgCl2, 0.02% Tween-20, 20 μM ATP, 1 mM DTT and 0.2 μg/mL PKD2 enzyme. The enzyme reaction is initiated by the addition of 2 μM syntide-2 peptide substrate and the reaction carried out for 50 minutes at room temperature. The reaction is stopped by a stop/detection buffer consisting of 50 mM EDTA, 0.18 mg/mL rabbit polyclonal anti-phospho syntide-2 antibody, 0.5 nM europium labeled anti-rabbit IgG and 10 nM streptavidin conjugated APC. After a one hour incubation with the stop/detection buffer, the reaction is read on an Envision 2100 Reader using a LANCE™ Eu/APC dual protocol. […] IC50 values are calculated using an Activity Base (IDBS) software program.

| Compound | IC50 |
| --- | --- |
| CN1CCN(c2nc(-c3ccnc(NC4CCCCC4)c3)cc3cnccc23)CC1 [Example 13, Cyclohexyl-{4-[1-(4-methylpiperazin-1-yl)-[2,6]naphthyridin-3-yl]pyridin-2-yl}amine] | 14 nM |
| CNc1cc(-c2cc3cnccc3c(NC)n2)ccn1 [Example 2, 1-Methylamino-3-(2-methylaminopyridin-4-yl)-[2,6]-naphthyridine] | 753 nM |

Other lines, results leading:

| IC50 | Compound |
| --- | --- |
| 11 nM | O=C(NCCO)C1CCN(c2nc(-c3ccnc(NC4CCOCC4)c3)cc3cnccc23)CC1 [Example 16, 1-{3-[2-(Tetrahydropyran-4-ylamino)pyridin-4-yl]-[2,6]naphthyridin-1-yl}piperidine-4-carboxylic acid (2-hydroxyethyl)amide] |
| 414 nM | NC(=O)C1CCN(c2nc(-c3ccnc(NC4CCCCC4)c3)cc3cnccc23)CC1 [Example 10, 1-[3-(2-Cyclohexylaminopyridin-4-yl)-[2,6]naphthyridin-1-yl]piperidine-4-carboxylic acid amide] |

same assay, conditions: full length wild-type enzyme, 20 μM ATP; read-out: Inhibitory Activity PKD2

| Compound | IC50 |
| --- | --- |
| CN(C)CCNc1nc(-c2ccnc(NC3CCCCC3)c2)cc2cnccc12 [Example 8, N-[3-(2-Cyclohexylaminopyridin-4-yl)-[2,6]naphthyridin-1-yl]-N′,N′-dimethylethane-1,2-diamine] | 259 nM |
| c1cc2c(NC3CCCNC3)nc(-c3ccnc(NC4CCCCC4)c3)cc2cn1 (stereo not drawn) [Example 15, [3-(2-Cyclohexylaminopyridin-4-yl)-[2,6]naphthyridin-1-yl]piperidin-3-ylamine] | 102 nM |
| O=C(NC1CC1)C1CCN(c2nc(-c3ccnc(NC4CCOCC4)c3)cc3cnccc23)CC1 [Example 17, 1-{3-[2-(Tetrahydropyran-4-ylamino)pyridin-4-yl]-[2,6]naphthyridin-1-yl}piperidine-4-carboxylic acid cyclopropylamide] | 14 nM |
| c1ccc(Nc2cc(-c3cc4cnccc4c(N4CCNCC4)n3)ccn2)cc1 [Example 4, Phenyl-[4-(1-piperazin-1-yl-[2,6]naphthyridin-3-yl)pyridin-2-yl]amine] | 40 nM |
| CCNC(=O)N1CCN(c2nc(-c3ccnc(Nc4ccn(C)n4)c3)cc3cnccc23)CC1 [Example 18, 4-{3-[2-(1-Methyl-1H-pyrazol-3-ylamino)pyridin-4-yl]-[2,6]naphthyridin-1-yl}piperazine-1-carboxylic acid ethylamide] | 127 nM |
| CNc1cc(-c2cc3cnccc3c(NCCCO)n2)ccn1 [Example 1] | 903 nM |
| CN(C)CCNc1nc(-c2ccnc(Nc3ccccc3)c2)cc2cnccc12 [Example 9, N,N-Dimethyl-N′-[3-(2-phenylaminopyridin-4-yl)-[2,6]naphthyridin-1-yl]-ethane-1,2-diamine] | 169 nM |
| CC(=O)N1CCN(c2nc(-c3ccnc(NC4CCCCC4)c3)cc3cnccc23)CC1 [Example 11, 1-{4-[3-(2-Cyclohexylaminopyridin-4-yl)-[2,6]naphthyridin-1-yl]piperazin-1-yl}ethanone] | 137 nM |

More lines, now with the values ahead:

| IC50 | Compound |
| --- | --- |
| 195 nM | COc1cccc(Nc2cc(-c3cc4cnccc4c(NCCO)n3)ccn2)c1 [Example 7] |
| 497 nM | CC(C)Nc1cc(-c2cc3cnccc3c(NCCO)n2)ccn1 [Example 6, 2-[3-(2-Isopropylaminopyridin-4-yl)-[2,6]naphthyridin-1-ylamino]ethanol] |
| 6 nM | c1cc2c(NC3CCNC3)nc(-c3ccnc(NC4CCCCC4)c3)cc2cn1 (stereo not drawn) [Example 14, [3-(2-Cyclohexylaminopyridin-4-yl)-[2,6]naphthyridin-1-yl]pyrrolidin-3-ylamine] |
| 63 nM | CN(C)CC1CCN(c2nc(-c3ccnc(NC4CCCCC4)c3)cc3cnccc23)CC1 [Example 12, Cyclohexyl-{4-[1-(4-dimethylaminomethylpiperidin-1-yl)-[2,6]naphthyridin-3-yl]pyridin-2-yl}amine] |
| 0.3 nM | c1cc2c(N3CCNCC3)nc(-c3ccnc(NC4CCCCC4)c3)cc2cn1 [Example 3, Cyclohexyl-[4-(1-piperazin-1-yl-[2,6]naphthyridin-3-yl)pyridin-2-yl]amine] |
| 2 nM | Cn1ccc(Nc2cc(-c3cc4cnccc4c(N4CCC(C(N)=O)CC4)n3)ccn2)n1 [Example 19, 1-{3-[2-(1-Methyl-1H-pyrazol-3-ylamino)pyridin-4-yl]-[2,6]naphthyridin-1-yl}piperidine-4-carboxylic acid amide] |
| 120 nM | COCCNc1cc(-c2cc3cnccc3c(N3CCNCC3)n2)ccn1 [Example 21, (2-Methoxyethyl)-[4-(1-piperazin-1-yl-[2,6]naphthyridin-3-yl)-pyridin-2-yl]amine] |
| 1370 nM | OCCNc1nc(-c2ccnc(NC3CCCCC3)c2)cc2cnccc12 [Example 5, 2-[3-(2-Cyclohexylaminopyridin-4-yl)-[2,6]naphthyridin-1-ylamino]ethanol] |
| 59 nM | Cn1ccc(Nc2cc(-c3cc4cnccc4c(N4CCC5(CCNC5=O)CC4)n3)ccn2)n1 [Example 20, 8-{3-[2-(1-Methyl-1H-pyrazol-3-ylamino)pyridin-4-yl]-[2,6]naphthyridin-1-yl}-2,8-diaza-spiro[4.5]decan-1-one] |
